Measurements reported in PubChem BioAssay (NCI).
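In this assay, cells in 96-well plates receive the compound at five concentrations for 48 hours. Endpoints are linearly interpolated between the surrounding concentrations. At the TGI there is no net growth.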

Experiments:
Assay in all cases: NCI anticancer screen, dose series, 48 h
[1] = tested on: ACHN renal
[2] = tested on: CAKI-1 renal
[3] = tested on: EKVX NSCLC
[4] = tested on: HL-60(TB) leukemia
[5] = tested on: HOP-92 NSCLC
[6] = tested on: LOX IMVI melanoma
[7] = tested on: MDA-MB-231 breast
[8] = tested on: NCI-H23 lung
[9] = tested on: OVCAR-4 ovarian
[10] = tested on: OVCAR-8 ovarian
[11] = tested on: RXF 393 renal
[12] = tested on: SK-OV-3 ovarian
[13] = tested on: SNB-75 CNS
[14] = tested on: U251 CNS
[15] = tested on: UACC-62 melanoma

Compound | TGI [1] [µM] | TGI [2] [µM] | TGI [3] [µM] | TGI [4] [µM] | TGI [5] [µM] | TGI [6] [µM] | TGI [7] [µM] | TGI [8] [µM] | TGI [9] [µM] | TGI [10] [µM] | TGI [11] [µM] | TGI [12] [µM] | TGI [13] [µM] | TGI [14] [µM] | TGI [15] [µM]
O=C(N/N=C\c1ccc(Cl)cc1)Nc1cccc2ccccc12 | 4.92 | 4.76 | > 100 | 27.1 | 21.2 | > 100 | > 59.1 | 98.9 | 6.84 | > 40.8 | 9.99 | 6.75 | 5.62 | 10.1 | > 100
Nc1nc(N)c2c(-c3ccccc3)ccnc2n1 | > 100 | > 100 | > 100 | > 100 | > 100 | > 100 | > 100 | > 100 | > 100 |  | > 100 | > 100 |  | > 100 | > 100
CSc1c(S(C)=O)c2ccccc2n1C (stereo unspecified) | > 100 | > 100 | > 100 | > 100 |  | > 100 | > 100 | > 100 | > 100 | > 100 | > 100 | > 100 | > 100 |  | > 100
COC(=O)CCc1cc(OC)c2oc(-c3ccc(OC)c(OC)c3)c(CO)c2c1 | > 100 | > 100 | > 100 | > 100 | > 100 | > 100 | > 100 | > 100 | > 100 | > 100 |  | > 100 |  | > 100 | > 100
CC(=O)Oc1ccc(C)c2c1[C@H]1CC[C@]3(C)[C@@H](OC(C)=O)CC[C@H]3[C@@H]1CC2 | 29.8 |  | 30.9 | 51.5 | 30.9 | 31.4 | 33.9 | 34.7 |  | 58.3 | 35.4 |  | 54.5 | 29.1 | 34.5
CC(=O)c1sc2c(c1OC(=O)c1ccccc1)c(=O)n(-c1ccccc1)c(=S)n2-c1ccccc1 | 12.6 | > 26.4 | 69.1 | > 68.1 | 5.94 | 5.26 | 22.7 | > 71.9 | 57.9 | > 28.3 | 7.21 | > 49.9 | 28.6 | 23.7 | 32.8
Cc1ccc(/C=C2\CCS(=O)(=O)c3ccccc3C2=O)cc1 | 28.6 | 33.2 | 34.9 | 73.1 | 31 | 30.8 | 34.6 | 29.6 | 34.8 | 30.7 | 44.2 | 46.3 | 32.9 | 30.8 | 33.4
CC1=NC(=O)CNN1C1=NNC2(C(=O)N1)c1ccccc1-c1ccccc12 | > 100 | > 100 | > 100 | > 100 | > 100 | > 100 | > 100 | > 100 | > 100 | > 100 | > 100 | > 100 | > 100 | > 100 | > 100
Cc1ccc2nc(-c3nccn3C)cc(C(=O)NC(C)CN(C)C)c2c1 (stereo unspecified) | > 100 | > 100 | > 100 | > 100 | > 100 | > 100 | > 100 | > 100 |  | > 100 | > 100 |  | > 100 | > 100 | > 100
CC(C)NC(=O)OCc1c(COC(=O)NC(C)C)c(-c2cc[n+](COC(=O)Cc3ccccc3)cc2)n2c1CCC2 | > 100 | > 100 | > 100 | > 100 | > 100 | > 100 | > 100 | > 100 | > 100 | > 100 | > 100 | > 100 | > 100 | > 100 | > 100
O=C(NCCCN1CCN(CCCNC(=O)c2cc(-c3ccccc3)nc3ccccc23)CC1)c1cc(-c2ccccc2)nc2ccccc12 | 28.8 | 20.8 | 51.5 | > 51.8 | 28.5 | 10.6 | > 62.6 | > 100 | > 58.4 | 29.7 | > 60 | 40.2 | > 52.6 | 30.7 | 37.5
CCOC(=O)NC(C(F)(F)F)(C(F)(F)F)P(=O)(OCC)OCC | > 100 |  |  | > 100 | > 100 | > 100 | > 100 | > 100 | > 100 | > 100 | 44.1 | > 100 | > 100 | 79.5 | > 100
Cc1c2c(n3c(nc4ccccc43)c1C#N)NCC2 | > 10 | > 10 | > 10 | > 10 | > 10 | > 10 | > 10 | > 10 | > 10 | > 10 | > 10 | > 10 | > 10 | > 10 | > 10
O=C(/C=C/c1ccc(O)c(O)c1)c1ccc(O)cc1O | 45.3 | 28.9 | 75.6 | 22.3 | 33.3 | 24 | 50.8 | 39.9 | 37.8 | 51 | 25.8 | 38 | 25.2 | 17.6 | 48.3
CC(c1ccccc1)n1c2ccccc2c2c(N)ncnc21 (stereo unspecified) | 31.9 | 62.2 | 24.7 | 47.8 | 27.6 | 33.1 | 34.9 | 39.5 | 31.2 | 31.8 | 33.5 | 29.5 | 9.19 | 30.5 | 
Cc1cc(S(=O)(=O)Nc2nnc3c(Cl)cc(C(F)(F)F)cn23)c(S)cc1Cl | > 100 | > 100 | > 100 | > 100 | > 100 | > 100 | > 100 | > 100 | > 100 | > 100 | > 100 | > 100 | 9.12 | > 100 | > 100
